From patent US20100210649A1, “PYRIDAZINONES AND FURAN-CONTAINING COMPOUNDS” (Sloan-Kettering Institute for Cancer Research, priority 2006, published 2010)
Like-named read-outs stand apart in the source and are kept apart here.

Legend:
A549 = test: Dose response study (Alamar Blue), A549; format: cell-based; conditions: Homo sapiens, read-out: IC50 A549
Description: (§1) Dose response studies against 34 compounds from the pyridazinone and phenylfuran-carboxamide class were conducted. […] In addition, Tarceva was included in these dose response studies.
(§2) The dose response studies were done with the following standard procedure. First, the cells were counted and dispensed at 250 cells/well into 384-well microplates with compound. The cells were incubated for 48 hours at 37 C to complete treatment, and then alamar blue was added for an additional 48 hours. Finally, alamar blue reduction was measured and the data was loaded into ORIS, our data screening acquisition platform.

H1118 = test: Non Small Cell Lung Cancer proliferation assay (Alamar Blue reduction), H1118; format: cell-based
Description: Non Small Cell Lung Cancer Proliferation Assay. To perform the assay, the Non Small Cell Lung Cancer lines are diluted in media and plated into 384 well microplates at a final density of 250 cells in […]. To ensure consistency and minimal pipetting error, the cells are plated using the Multidrop 384 with the following settings: Rocker Switch set at 384, Volume 45 and Column 24.
Low Controls for this assay are made by treating Non Small Cell Lung Cancer cells with 5 ul of staurosporine at 250 uM in 10% DMSO and 1% SDS. [Final concentration in this assay is 25 uM staurosporine in 1% DMSO and 0.1% SDS.]
High Controls for this assay are made by treating Non Small Cell Lung Cancer cells with 5 ul of 10% DMSO. [Final concentration in this assay is 1% DMSO].
The remaining wells of the 384 microplate may be treated with different compounds depending on the study. Important Note: All compounds for testing in this assay should be done at the final concentration of 1% DMSO.
After addition, the cells are placed in cell culture incubator at 37° C. for 48 hours for complete treatment.
After drug treatment, cytotoxicity is measured by Alamar Blue reduction. 5 μL of Alamar Blue is added to the 384 microplates using the Flexdrop.
The cells are incubated for 48 hours at 37° C. to complete the Alamar Blue reduction.
The final step in the assay is to measure the amount of Alamar Blue reduction. […] The Alamar Blue fluorescence is measured at an excitation of 530 nm and emission of 590 nm.
For the NSCLC project, the cell based assay was screened against a small molecule library of approximately 200,000 compounds. The compound library is stored in our automated robotic freezer (Biophile) at −20° C. in 100% DMSO. Compound freeze and thaw cycles are kept to a minimum. Compounds for use are diluted into the appropriate concentration and plated into 384 well microplates using our custom built low volume 384-well head tool (TPS 384, Apricot Designs Inc., CA, USA). This assay was performed on a fully automated linear track robotic platform (CRS F3 Robot System, Thermo Electron Corp., Ontario, Canada) utilizing several integrated peripherals for plate handling, liquid dispensing, and readout detection. First, non-small cell lung cancer cell lines are dispensed into 384 well microplates (Corning #3712 Tissue Culture Treated Plate, Corning, N.Y., USA) with 5 μL of test compounds at 100 uM in 10% DMSO for screening studies or […] in 10% DMSO to 50 nM in 10% DMSO for dose response studies. The microplates are then placed at 37° C. for 48 hours to complete treatment of cells with compounds. Next, 5 ul of alamar blue was added using a liquid dispenser (Flexprop Precision Dispenser, Perkin Elmer, Mass., USA) and incubated for 48 hours at 37° C. The alamar blue prompt fluorescence was measured on Victor V (Victor^3 V, Perkin Elmer, Mass., USA) and output data files were loaded into ORIS (Oncology Research Informatics System, MSKCC, NY, USA), a screening data acquisition and analysis platform.
as §2

[1] = test system: HPL1D (human peripheral lung epithelial) cell line; test: Cell proliferation / dose response (Alamar Blue), HPL1D; format: cell-based; conditions: read-out: IC50 HPL1D
Description: WI-38: human lung fibroblast cell line. […] WT: wildtype; WT*: over-expressed wildtype. Dose response studies against 34 compounds from the pyridazinone and phenylfuran-carboxamide class were conducted. […] In addition, Tarceva was included in these dose response studies. The dose response studies were done with the following standard procedure. […] The cells were incubated for 48 hours at 37 C to complete treatment, and then alamar blue was added for an additional 48 hours. Finally, alamar blue reduction was measured and the data was loaded into ORIS, our data screening acquisition platform.

H2444 = test: Dose response study (Alamar Blue), H2444; format: cell-based; conditions: Homo sapiens, read-out: IC50 H2444
Description: as §1, §2

in vitro = conditions: human
Description: NHBE (normal human bronchiolar epithelial cells) are primary cells obtained from donor lungs and commercially available from Cambrex. The HPL1D (human peripheral lung epithelial) cell line has been immortalized with the SV40 large T-antigen. WI-38: human lung fibroblast cell line. HPLID, NHBE and WI-38 cells will serve as controls in the chemical screens. WT: wildtype; WT*: over-expressed wildtype.
Compounds were tested in dose response studies from […] to 5 nM against several non small cell lung cancer lines: H358, H827, H1118, H1650, H1734, H1975, H2030, and H3255, and were also studied in a 72 hour cytotoxicity assay against the NHBE and WI-38 cell lines.

[2] = A549, 12 point doubling dilution 10 uM to 5 nM, 48 h treatment, alamar blue additional 48 h
[3] = Homo sapiens; H1118; 12 point doubling dilution 10 uM to 5 nM; 48 h treatment, alamar blue additional 48 h; read-out: IC50 H1118
[4] = HPL1D, 12 point doubling dilution 10 uM to 5 nM, 48 h treatment, alamar blue additional 48 h
[5] = NCI-H2444, H2444, 12 point doubling dilution 10 uM to 5 nM, 48 h treatment, alamar blue additional 48 h
[6] = Homo sapiens, 48 h, read-out: IC50 H1118
[7] = Homo sapiens, read-out: Dose Response (uM) H1118
[8] = Homo sapiens; read-out: Dose Response (uM) H1118

SMILES | IC50 (A549; [2]) | IC50 (H1118; [3]) | IC50 [1, 4] | IC50 (H2444; [5]) | IC50 (A549; A549, 48 h) | IC50 (H1118; [6]) | IC50 ([1]; 48 h) | IC50 (H2444; NCI-H2444, 48 h) | IC50 (H1118; [7]) | IC50 (H1118; [8]) | IC50 at 72 h (in vitro; CytoTox (uM) NHBE) | IC50 at 72 h (in vitro; CytoTox (uM) WI-38)
Cc1cccc(NC(=O)c2ccc([N+](=O)[O-])o2)c1 [compound 71762] | 1460 nM | 0.38 µM | > 10000 nM | 3800 nM |  |  |  |  |  |  |  | 
O=C(Nc1ccc(F)c(Cl)c1)c1ccc([N+](=O)[O-])o1 [compound 87200] | > 10000 nM | 4.33 µM | > 10000 nM | > 10000 nM |  |  |  |  |  |  |  | 
Cc1ccc(NC(=O)c2ccc([N+](=O)[O-])o2)cc1 [compound 98697] |  |  |  |  | 1810 nM | 0.56 µM | > 10000 nM | 4790 nM |  |  |  | 
O=C(Nc1ccc(Cl)cc1)c1ccc([N+](=O)[O-])o1 [compound 98698, 5-nitro-furan-2-carboxylic acid (4-chloro-phenyl)-amide] |  |  |  |  | 1330 nM | 0.53 µM | > 10000 nM | 2430 nM |  |  |  | 
Cc1cccc(-n2ncc(Cl)c(Cl)c2=O)c1 [compound 104122, 4,5-dichloro-2-m-tolyl-2H-pyridazin-3-one] |  |  |  |  | 1450 nM | 0.34 µM | 280 nM | 240 nM | 0.11 µM |  |  | 
O=c1c(Cl)c(Cl)cnn1-c1cccc(C(F)(F)F)c1 [compound 176729] | 1190 nM | 0.31 µM | 250 nM | 210 nM |  |  |  |  |  | 0.2 µM | 2.76 µM | 3.42 µM
O=c1c(Cl)c(Cl)cnn1-c1ccccc1 [compound 257014] |  |  |  |  | 1680 nM | 0.45 µM | 380 nM | 340 nM | 0.27 µM |  | 3.29 µM | 6.93 µM
O=c1c(Br)c(Br)cnn1-c1ccccc1 [compound 257015] | 1200 nM | 0.37 µM | 300 nM | 300 nM |  |  |  |  |  | 0.22 µM | 2.38 µM | 3.03 µM
Cc1ccc(-n2ncc(Cl)c(Cl)c2=O)cc1 [compound 257016] | 2630 nM | 0.54 µM | 480 nM | 410 nM |  |  |  |  |  | 0.38 µM | 3.29 µM | 6.43 µM
Cc1cccc(-n2ncc(Cl)c(Cl)c2=O)c1C [compound 257018] | 2270 nM | 0.54 µM | 1300 nM | 850 nM |  |  |  |  |  | 0.44 µM | 3.89 µM | 7.35 µM
Cc1ccc(-n2ncc(Cl)c(Cl)c2=O)cc1C [compound 257019] | 4200 nM | 0.94 µM | 620 nM | 820 nM |  |  |  |  |  | 0.29 µM | 3.24 µM | 7.02 µM
Cc1cc(C)cc(-n2ncc(Cl)c(Cl)c2=O)c1 [compound 257020] | 2870 nM | 0.58 µM | 410 nM | 400 nM |  |  |  |  |  | 0.34 µM | 3.18 µM | 6.78 µM
COc1nn(-c2cccc(C)c2)c(=O)c(Cl)c1Cl [compound 257028] | 3760 nM | 1.1 µM | 1930 nM | 1170 nM |  |  |  |  |  |  | 5.24 µM | 7.52 µM
O=c1c(Cl)c(Cl)cnn1-c1ccc(C(F)(F)F)cc1 [compound 267060] | 5310 nM | 1.66 µM | 560 nM | 1260 nM |  |  |  |  |  |  | 3.44 µM | > 10 µM
COc1cccc(-n2ncc(Cl)c(Cl)c2=O)c1 [compound 267061] | 1760 nM | 0.4 µM | 290 nM | 370 nM |  |  |  |  |  |  | 1.7 µM | 3.91 µM
CCc1cccc(-n2ncc(Cl)c(Cl)c2=O)c1 [compound 267062] | 2810 nM | 0.67 µM | 380 nM | 430 nM |  |  |  |  |  |  | 1.85 µM | 6.44 µM
CCCCc1cccc(-n2ncc(Cl)c(Cl)c2=O)c1 [compound 267063] | > 10000 nM | 6.41 µM | 7040 nM |  |  |  |  |  |  |  | 5.34 µM | > 10 µM
Cc1cc(-n2ncc(Cl)c(Cl)c2=O)ccc1Br [compound 267064] | > 10000 nM | > 10 µM | 4720 nM | 6410 nM |  |  |  |  |  |  | 4.04 µM | > 10 µM
Cc1cc(-n2ncc(Cl)c(Cl)c2=O)ccc1Cl [compound 267065] | > 10000 nM | > 10 µM | 6660 nM | 6370 nM |  |  |  |  |  |  | > 10 µM | > 10 µM
O=c1c(Cl)c(Cl)cnn1-c1ccc2c(c1)CCC2 [compound 267066] | 7520 nM | 2.73 µM | 1660 nM | 1530 nM |  |  |  |  |  |  | 1.74 µM | 5.37 µM
Cc1nc2cc(-n3ncc(Cl)c(Cl)c3=O)ccc2s1 [compound 267067] | > 10000 nM | > 10 µM | 7010 nM | 6920 nM |  |  |  |  |  |  | > 10 µM | > 10 µM
O=c1c(Cl)c(Cl)cnn1-c1ccc2c(c1)OCCO2 [compound 267068] | 1930 nM | 0.48 µM | 420 nM | 410 nM |  |  |  |  |  |  | 1.56 µM | 3.96 µM
O=c1c(Cl)c(Cl)cnn1Cc1ccccc1 [compound 267069] | 7390 nM | 3.21 µM | 5250 nM | 4130 nM |  |  |  |  |  |  | 7.32 µM | > 10 µM
Cc1ccc(-n2ncc(Cl)c(Cl)c2=O)cc1Cl [compound 267070] | > 10000 nM | > 10 µM | > 10000 nM | > 10000 nM |  |  |  |  |  |  | > 10 µM | > 10 µM
Cc1cccc(-n2ncc(Br)c(Br)c2=O)c1 [compound 267071] | 1620 nM | 0.41 µM | 240 nM | 310 nM |  |  |  |  |  |  | 1.61 µM | 2.61 µM
O=c1c(Br)c(Br)cnn1-c1cccc(C(F)(F)F)c1 [compound 267072] | 3420 nM | 1.21 µM | 510 nM | 1050 nM |  |  |  |  |  |  | 1.43 µM | 2.17 µM
